Experimental data reported in ChEMBL document CHEMBL1201862, “PubChem BioAssay data set” (2004).
Activity calls are given as the source filed them.

How the values were obtained:
[1] = molecular target: T1, Ubiquitin-conjugating enzyme E2 N (Homo sapiens, UniProt P61088); type: functional;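 note: Dose-response confirmation in a TR-FRET assay detecting UBC13-driven polyubiquitin chain formation, inhibition measured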
T1 sequence (P61088 whole entry): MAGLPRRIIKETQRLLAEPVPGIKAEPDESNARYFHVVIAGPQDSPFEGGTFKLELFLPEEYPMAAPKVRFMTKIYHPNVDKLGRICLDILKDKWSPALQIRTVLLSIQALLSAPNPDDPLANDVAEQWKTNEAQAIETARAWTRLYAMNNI

[2] = molecular target: T2, Histone-lysine N-methyltransferase NSD2 (Homo sapiens, UniProt O96028); type: biochemical
T2 sequence (O96028 whole entry): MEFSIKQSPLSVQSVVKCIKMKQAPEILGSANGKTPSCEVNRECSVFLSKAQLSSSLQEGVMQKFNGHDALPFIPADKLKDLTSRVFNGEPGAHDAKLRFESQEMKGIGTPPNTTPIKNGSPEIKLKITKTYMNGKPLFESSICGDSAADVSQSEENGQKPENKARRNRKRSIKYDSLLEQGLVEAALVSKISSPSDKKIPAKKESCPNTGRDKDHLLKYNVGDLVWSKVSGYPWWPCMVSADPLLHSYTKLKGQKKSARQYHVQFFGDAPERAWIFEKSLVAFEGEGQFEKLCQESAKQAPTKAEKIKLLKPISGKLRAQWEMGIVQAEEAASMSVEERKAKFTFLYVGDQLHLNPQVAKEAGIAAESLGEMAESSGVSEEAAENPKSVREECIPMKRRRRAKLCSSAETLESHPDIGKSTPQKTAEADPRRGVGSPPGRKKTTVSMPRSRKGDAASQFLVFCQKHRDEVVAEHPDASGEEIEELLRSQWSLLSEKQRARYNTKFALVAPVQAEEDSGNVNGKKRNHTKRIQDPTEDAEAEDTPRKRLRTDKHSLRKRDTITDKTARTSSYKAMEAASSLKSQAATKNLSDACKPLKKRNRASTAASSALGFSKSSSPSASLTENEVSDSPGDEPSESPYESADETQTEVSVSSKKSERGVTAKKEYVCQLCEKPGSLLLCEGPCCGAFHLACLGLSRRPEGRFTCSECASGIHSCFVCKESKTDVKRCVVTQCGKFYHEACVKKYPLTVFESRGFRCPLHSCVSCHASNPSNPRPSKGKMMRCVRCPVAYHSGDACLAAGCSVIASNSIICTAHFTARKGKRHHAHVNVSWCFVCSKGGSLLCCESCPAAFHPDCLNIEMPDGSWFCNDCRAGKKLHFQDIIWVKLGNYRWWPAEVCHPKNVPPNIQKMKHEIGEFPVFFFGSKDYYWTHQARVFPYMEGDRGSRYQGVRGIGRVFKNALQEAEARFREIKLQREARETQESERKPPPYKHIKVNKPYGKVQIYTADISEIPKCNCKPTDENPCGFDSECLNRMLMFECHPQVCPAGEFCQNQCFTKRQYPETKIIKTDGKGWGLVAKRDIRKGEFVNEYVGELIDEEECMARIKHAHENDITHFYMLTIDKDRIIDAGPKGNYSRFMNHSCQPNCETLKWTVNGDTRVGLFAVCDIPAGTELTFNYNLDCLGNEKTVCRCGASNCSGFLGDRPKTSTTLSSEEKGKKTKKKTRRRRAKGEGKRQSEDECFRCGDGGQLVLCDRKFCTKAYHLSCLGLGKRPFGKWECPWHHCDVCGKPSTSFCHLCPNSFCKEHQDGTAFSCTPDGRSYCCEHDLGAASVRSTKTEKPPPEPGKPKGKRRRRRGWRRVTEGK

[3] = growth suppression of beta-catenin-knockout colon cells, dose response, cell-based, HCT116, human colon tumor (AID 1045); type: functional;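 note: HCT116 colon tumor cells with beta catenin knocked out; cells exposed to compound for 60 hours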
[4] = cytotoxicity toward NIH3T3 fibroblasts, dose response, counter-screen, cell-based, ATP luminescence, mouse fibroblasts (AID 2010); type: functional;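 note: cells exposed to compound for about 90 hours before reading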
[5] = inhibitors of intracellular T. cruzi replication, confirmation, NIH3T3 host cells, beta-gal luminescence (AID 2044); type: functional, cell-based;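 note: intracellular parasites grown in NIH/3T3 mouse fibroblasts as host cells; luminescent beta-galactosidase reporter signal from transgenic T. cruzi replicating inside host cells; inhibitors lower the luminescence signal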
[6] = Luminescence Cell-Based Dose Retest to Confirm Inhibitors of Cancer Stem Cells. [Related pubchem assays (depositor defined):AID2717, AID2721]; type: functional; conditions: Homo sapiens
[7] = growth suppression of PTEN-null colon cells, dose response, cell-based, HCT116 PTEN knockout (AID 1047); type: functional;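 note: HCT116 colon tumor cells with PTEN knocked out; cells exposed to compound for 60 hours before readout; potency for loss of cell viability measured by luminescence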
[8] = cells; type: functional
[9] = molecular target: T3, Polyadenylate-binding protein 1 (Homo sapiens, UniProt P11940); test: PABP1 MLLE–PAM2 interaction inhibitors, dose response, miRNA deadenylation inhibitor project, biochemical, fluorescence polarization, Cy5-PAM2 peptide, secondary (AID 602260); type: functional; conditions: read-out: IC50_Mean
T3 sequence (P11940 whole entry): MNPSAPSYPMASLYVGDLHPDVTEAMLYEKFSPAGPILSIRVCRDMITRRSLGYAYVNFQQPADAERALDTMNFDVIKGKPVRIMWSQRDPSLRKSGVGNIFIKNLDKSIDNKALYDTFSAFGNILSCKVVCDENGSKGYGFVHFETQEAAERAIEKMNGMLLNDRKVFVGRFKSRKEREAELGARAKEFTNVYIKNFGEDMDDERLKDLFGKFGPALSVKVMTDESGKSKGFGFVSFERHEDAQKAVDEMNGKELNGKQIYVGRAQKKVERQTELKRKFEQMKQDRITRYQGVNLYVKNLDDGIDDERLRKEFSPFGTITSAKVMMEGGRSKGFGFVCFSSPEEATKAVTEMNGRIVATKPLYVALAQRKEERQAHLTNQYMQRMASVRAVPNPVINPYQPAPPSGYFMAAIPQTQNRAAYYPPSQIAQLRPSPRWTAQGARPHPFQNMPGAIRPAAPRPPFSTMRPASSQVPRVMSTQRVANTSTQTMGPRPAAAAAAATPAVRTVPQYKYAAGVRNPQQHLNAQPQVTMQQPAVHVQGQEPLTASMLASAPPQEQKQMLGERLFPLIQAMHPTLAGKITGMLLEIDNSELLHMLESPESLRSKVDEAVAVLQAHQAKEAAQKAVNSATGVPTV

[10] = molecular target: T3, Polyadenylate-binding protein 1; test: PABP1 MLLE–PAM2 binding inhibitor potency, dose response, biochemical, fluorescence polarization, FITC-PAM2 peptide (AID 602259); type: functional; conditions: read-out: IC50_Mean
[11] = molecular target: T4, Protein skinhead-1 (Caenorhabditis elegans, UniProt P34707); type: functional
T4 sequence (P34707 whole entry): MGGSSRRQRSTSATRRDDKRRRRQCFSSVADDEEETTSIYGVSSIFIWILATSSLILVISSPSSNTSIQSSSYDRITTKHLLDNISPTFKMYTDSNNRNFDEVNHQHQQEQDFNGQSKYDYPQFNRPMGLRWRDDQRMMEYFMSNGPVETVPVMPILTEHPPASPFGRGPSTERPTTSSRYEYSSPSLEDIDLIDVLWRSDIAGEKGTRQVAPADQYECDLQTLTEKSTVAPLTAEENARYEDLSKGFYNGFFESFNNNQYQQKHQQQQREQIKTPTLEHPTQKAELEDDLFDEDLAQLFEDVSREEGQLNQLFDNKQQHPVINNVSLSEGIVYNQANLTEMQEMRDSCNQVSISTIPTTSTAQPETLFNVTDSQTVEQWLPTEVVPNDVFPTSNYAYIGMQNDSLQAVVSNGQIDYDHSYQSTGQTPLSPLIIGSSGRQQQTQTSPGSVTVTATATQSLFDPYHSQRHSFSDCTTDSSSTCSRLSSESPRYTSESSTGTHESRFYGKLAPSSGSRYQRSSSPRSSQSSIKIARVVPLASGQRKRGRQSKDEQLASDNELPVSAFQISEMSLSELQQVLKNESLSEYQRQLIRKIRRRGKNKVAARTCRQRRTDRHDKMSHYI

[12] = molecular target: Glucose-6-phosphate 1-dehydrogenase (Homo sapiens, UniProt P11413); test: human G6PD enzyme inhibitors, dose response, selectivity assay for P. falciparum G6PD inhibitor project, biochemical, fluorescence (AID 504792); type: functional
Sequence of Glucose-6-phosphate 1-dehydrogenase (P11413 whole entry): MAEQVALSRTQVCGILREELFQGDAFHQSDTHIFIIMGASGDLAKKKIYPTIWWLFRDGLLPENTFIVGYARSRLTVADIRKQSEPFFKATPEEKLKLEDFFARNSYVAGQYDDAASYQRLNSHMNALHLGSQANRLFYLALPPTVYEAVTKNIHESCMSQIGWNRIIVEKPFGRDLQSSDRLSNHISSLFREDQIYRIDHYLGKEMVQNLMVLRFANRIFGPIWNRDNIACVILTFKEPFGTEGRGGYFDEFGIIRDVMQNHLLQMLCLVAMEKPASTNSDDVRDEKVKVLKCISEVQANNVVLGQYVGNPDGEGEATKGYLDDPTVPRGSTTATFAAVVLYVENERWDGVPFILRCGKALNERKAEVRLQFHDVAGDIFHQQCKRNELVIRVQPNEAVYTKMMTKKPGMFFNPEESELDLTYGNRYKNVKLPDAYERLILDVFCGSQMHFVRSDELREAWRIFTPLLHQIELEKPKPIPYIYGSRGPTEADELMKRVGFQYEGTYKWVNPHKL

[13] = HeLa cell cytotoxicity, dose response, cytotoxicity control for MgcRacGAP inhibitor project (AID 624300); type: functional
[14] = molecular target: T5, Replicative DNA helicase DnaB (Mycobacterium tuberculosis, UniProt P9WMR3); test: DnaB intein splicing inhibitors, dose response, biochemical, cell-free fluorescence (AID 449749); type: functional
T5 sequence (P9WMR3 whole entry): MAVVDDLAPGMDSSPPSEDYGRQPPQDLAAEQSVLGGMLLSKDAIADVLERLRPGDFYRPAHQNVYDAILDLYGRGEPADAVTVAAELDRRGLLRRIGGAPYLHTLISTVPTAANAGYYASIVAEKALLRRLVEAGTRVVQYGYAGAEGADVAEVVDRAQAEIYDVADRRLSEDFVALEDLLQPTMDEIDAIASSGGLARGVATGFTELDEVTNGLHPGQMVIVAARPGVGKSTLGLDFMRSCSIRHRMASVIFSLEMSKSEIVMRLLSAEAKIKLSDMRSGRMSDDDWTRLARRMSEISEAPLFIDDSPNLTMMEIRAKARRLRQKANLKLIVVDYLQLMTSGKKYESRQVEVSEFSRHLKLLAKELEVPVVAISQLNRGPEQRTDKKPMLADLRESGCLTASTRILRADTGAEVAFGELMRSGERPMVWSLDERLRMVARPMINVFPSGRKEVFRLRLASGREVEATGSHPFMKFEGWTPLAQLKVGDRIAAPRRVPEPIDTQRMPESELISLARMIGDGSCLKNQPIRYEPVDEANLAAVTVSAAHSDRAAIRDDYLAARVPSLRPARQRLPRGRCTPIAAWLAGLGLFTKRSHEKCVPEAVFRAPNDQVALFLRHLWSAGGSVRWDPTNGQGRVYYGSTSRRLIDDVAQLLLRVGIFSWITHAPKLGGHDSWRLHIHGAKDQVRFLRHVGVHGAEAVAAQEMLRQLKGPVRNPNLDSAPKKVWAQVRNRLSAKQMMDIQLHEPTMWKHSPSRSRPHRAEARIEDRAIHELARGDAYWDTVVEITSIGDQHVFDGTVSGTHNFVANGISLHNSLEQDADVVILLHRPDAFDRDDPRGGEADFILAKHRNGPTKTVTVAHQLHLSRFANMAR

[15] = molecular target: T6, Protein RecA (Mycobacterium tuberculosis, UniProt P9WHJ3); test: Fluorescence Cell-Free Homogeneous Dose Retest to Identify Inhibitors of RecA-Intein Splicing Activity. [Related pubchem assays (depositor defined):AID2097, AID2223, AID489010, AID492950]; type: functional
T6 sequence (P9WHJ3 whole entry): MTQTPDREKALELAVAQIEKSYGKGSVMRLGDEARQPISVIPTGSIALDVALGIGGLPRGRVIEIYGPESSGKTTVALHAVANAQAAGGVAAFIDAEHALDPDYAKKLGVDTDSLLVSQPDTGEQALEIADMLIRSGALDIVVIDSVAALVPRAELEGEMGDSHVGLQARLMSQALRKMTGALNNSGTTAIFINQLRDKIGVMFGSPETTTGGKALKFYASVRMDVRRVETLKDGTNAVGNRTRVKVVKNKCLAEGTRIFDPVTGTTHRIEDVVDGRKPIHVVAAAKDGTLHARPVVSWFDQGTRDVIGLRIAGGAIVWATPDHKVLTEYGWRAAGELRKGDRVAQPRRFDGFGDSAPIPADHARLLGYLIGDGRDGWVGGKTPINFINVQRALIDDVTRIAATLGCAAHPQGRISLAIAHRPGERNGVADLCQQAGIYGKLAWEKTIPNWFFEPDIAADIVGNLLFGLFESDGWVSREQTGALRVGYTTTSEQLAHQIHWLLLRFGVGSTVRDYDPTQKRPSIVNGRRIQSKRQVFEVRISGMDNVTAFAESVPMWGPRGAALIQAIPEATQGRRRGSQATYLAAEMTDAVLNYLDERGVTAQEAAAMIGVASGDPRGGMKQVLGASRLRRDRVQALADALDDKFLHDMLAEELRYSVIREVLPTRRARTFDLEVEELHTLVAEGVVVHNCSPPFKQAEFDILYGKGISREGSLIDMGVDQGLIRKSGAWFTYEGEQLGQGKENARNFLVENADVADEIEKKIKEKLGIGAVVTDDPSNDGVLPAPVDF

[16] = molecular target: T7, Rac GTPase-activating protein 1 (Homo sapiens, UniProt Q9H0H5); test: MgcRacGAP GTPase-activating activity inhibitors, confirmation, biochemical, ADP Hunter fluorescence, primary and confirmatory (AID 624330); type: functional
T7 sequence (Q9H0H5 whole entry): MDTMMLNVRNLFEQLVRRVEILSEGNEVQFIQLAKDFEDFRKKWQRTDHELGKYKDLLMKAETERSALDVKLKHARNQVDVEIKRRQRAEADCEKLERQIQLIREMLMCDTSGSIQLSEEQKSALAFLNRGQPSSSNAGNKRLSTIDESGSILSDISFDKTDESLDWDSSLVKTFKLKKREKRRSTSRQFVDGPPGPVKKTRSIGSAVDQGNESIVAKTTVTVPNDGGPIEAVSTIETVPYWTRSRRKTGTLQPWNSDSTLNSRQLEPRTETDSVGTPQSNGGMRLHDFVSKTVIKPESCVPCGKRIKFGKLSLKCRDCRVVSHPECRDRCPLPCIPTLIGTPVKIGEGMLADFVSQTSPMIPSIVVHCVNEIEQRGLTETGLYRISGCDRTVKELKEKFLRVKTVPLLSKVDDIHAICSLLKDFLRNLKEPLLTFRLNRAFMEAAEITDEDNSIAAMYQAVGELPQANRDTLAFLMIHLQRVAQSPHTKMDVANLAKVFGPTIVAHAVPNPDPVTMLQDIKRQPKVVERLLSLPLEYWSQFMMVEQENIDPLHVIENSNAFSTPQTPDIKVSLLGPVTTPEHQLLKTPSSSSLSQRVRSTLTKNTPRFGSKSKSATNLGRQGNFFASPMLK

In the case of COc1cc2[nH]c3c(N4CCN(c5ccc(Cl)cc5)CC4)ncnc3c2cc1OC, the IC50 [1] is reported as > 20 µM (inactive).
With CCN(CC)CCCNC(=O)C1CCN(C(=O)c2oc3cc4sc(N(C)C)nc4cc3c2C)CC1 the AC50 [2] was > 20 µM (inactive).
In the case of CCn1c(=O)c(C(=O)NCCN2CCCCC2)c(O)c2ccccc21, the IC50 [1] is reported as > 20 µM (inactive).
In the case of N#C/C(=C/c1cn(-c2ccccc2)nc1-c1cccc(OCc2ccccc2)c1)C(=O)NCCCn1ccnc1, the EC50 [3] is reported as 22 µM (active), the EC50 [4] is reported as > 30 µM (not active) and the EC50 [5] is reported as 1.44 µM (active). For the same compound, the IC50 [1] was > 20 µM (inactive), the AC50 [6] was 5.32 µM (active) and the EC50 [7] was 23.8 µM (active).
For Cc1ccc(-c2nnc(SCC#CCOC(=O)c3ccco3)o2)cc1, the IC50 [8] was 4.78 µM (active).
For CN(C=[N+](C)C)c1cccc2c1C(=O)c1ccccc1C2=O, the IC50 [9] was > 66 µM (inactive), the AC50 [2] was > 20 µM (inactive) and the IC50 [10] was 58.5 µM (inactive).
With Brc1ccc(-c2csc(-c3ccncc3)n2)cc1 the IC50 [11] was 51.6 µM (inactive).
For CCN(CC)S(=O)(=O)c1ccc(C(=O)NNC(=O)C2CCN(S(=O)(=O)c3ccc(Cl)cc3)CC2)cc1, the IC50 [1] was > 20 µM (inactive).
For COc1ccc(CC(=O)Nc2cc(S(=O)(=O)N3CCOCC3)ccc2N2CCOCC2)cc1, the IC50 [11] was > 100 µM (inactive).
With O=C(O)CCc1ccc(-c2ccccc2)n1NC(=O)c1ccco1 the IC50 [11] was > 100 µM (inactive).
For COc1ccc(C2(CNC(=O)c3ccc(OC)c([N+](=O)[O-])c3)CCCCC2)cc1OC, the IC50 [12] was 60.7 µM (inactive).
With CCCCCn1nnc2c(=O)oc3ccccc3c21 the IC50 [8] was 2.67 µM (active).
In the case of N#C/C(=C\c1ccc(F)cc1)c1nc(-c2ccco2)cs1, the IC50 [11] is reported as > 100 µM (inactive).
In the case of CCN(Cc1ccccc1)C(c1ccc(C)cc1)c1nnnn1C(C)(C)CC (stereo not drawn), the CC50 [13] is reported as 100 µM (active), the AC50 [14] is reported as 2.41 µM (active) and the EC50 [15] is reported as > 380 µM (inactive).
With COc1ccc(CNCCc2ccc(Cl)cc2)c(OC)c1OC the EC50 [4] was > 60 µM (not active), the CC50 [13] was 100 µM (active) and the IC50 [16] was 259 µM (active). For the same compound, the EC50 [5] was 0.462 µM (active).
For CN(C)c1ccc(C=c2c3ccccc3n3c2c2ccccc2[n+]3C)cc1, the IC50 [12] was > 80 µM (inactive).
